Measured values as given in US9649295B2, “Chemical inhibitors of soluble adenylyl cyclase (sAC)” (Cornell Research Foundation, Inc., priority 2004, dated 2017).
pEC50: −log10 of the molar value.

Assays:
CREB phosphorylation [1] = experiment: CREB phosphorylation in COS7 cells; type: cell-based; settings: 10 μM H89 pretreatment 10 min
Experimental: All cell lines were grown in DME (44 mM sodium bicarbonate) supplemented with 10% FBS. Where indicated, cells were transfected using Lipofectamine 2000 (Invitrogen, Carlsbad, Calif.) as per the manufacturer's instructions. Cells were incubated with DNA for 5 h in OPTI-MEM (Invitrogen), and then switched to normal media. Bicarbonate starvation was conducted by changing media to bicarbonate-free DME (44 mM Hepes) supplemented with 10% FBS for at least 1 h at 37° C. under ambient air conditions. Bicarbonate stimulation consisted of returning cells to normal bicarbonate-containing media and placing them in a 5% CO2 incubator. For PGE2 or forskolin stimulation, cells were grown in normal media under 5% CO2. Stimulation was accomplished by replacing media with normal media containing 1 μM PGE2 or 10 μM forskolin. […]
For phospho-CREB immunolocalization, cells or nuclei were fixed in 4% PFA for 30 min, permeabilized in 0.1% Triton X-100 for 15 min, blocked for at least 1 h in 3% BSA, and immunostained using phospho-CREB polyclonal antisera (1:500; Cell Signaling Technologies) overnight at 4° C. […] Fluorescent images were recorded by a digital camera (Hamamatsu, Bridgewater, N.J.) connected to an inverted epifluorescent microscope (Nikon, Melville, N.Y.). […] Phospho-CREB-positive nuclei were quantified in multiple fields from each stained slide by a blinded experimenter. […]

[2] = test system: CREB phosphorylation in isolated nuclei; experiment: CREB phosphorylation in isolated HeLa nuclei (P2), Western analysis; type: biochemical; settings: for relative intensity of phospho-CREB band normalized to basal: basal 1 U, 1 mM 8-Br cAMP, 40 mM bicarbonate alone or plus 10 μM H-89 or 1 mM 8-Br-RpcAMPs
Experimental: The resuspended pellet and 60% OptiPrep iodixanol were mixed (30% OptiPrep final) and centrifuged at 10,000 g for 20 min. The supernatant was removed and the nuclei-enriched pellet (P2) was resuspended in TM-2 buffer without detergent.
Reactions were stopped by the addition of 20 μl of SDS sample buffer (CREB phosphorylation) or by being placed into a 100° C. heat block for 3 min (adenylyl cyclase).
(§1) For whole cell and isolated nuclei CREB phosphorylation assays, equal cell or nuclear equivalents were separated under reducing conditions using a 10% SDS-PAGE, transferred to a PVDF membrane, and probed for CREB (rabbit polyclonal antiserum; Chemicon, Temecula, Calif.) and phosphorylated CREB (rabbit polyclonal antiserum; Upstate Biotechnology, Temecula, Calif.). HRP-conjugated secondary antibodies were used, and bands were visualized using ECL. Image analysis software (model Fluorchem 8800; Alpha Innotech, San Leandro, Calif.) was used to quantitate Western results. Intensities of phospho-CREB bands were normalized to total CREB.

[3] = test system: CREB phosphorylation in isolated nuclei; experiment: phospho-CREB immunocytochemistry of isolated nuclei; type: biochemical; settings: 10 min; 40 mM sodium bicarbonate, 1 mM 8-Br cAMP, 10 μM forskolin
Experimental: Cell Signaling Technologies) overnight at 4° C. Staining was visualized by incubation with goat anti-rabbit Alexa Fluor 488 (Molecular Probes) for 1 h at room temperature, treated with DAPI for 5 min, and washed and mounted with gelvatol/DABCO (Sigma-Aldrich). Fluorescent images were recorded by a digital camera (Hamamatsu, Bridgewater, N.J.) connected to an inverted epifluorescent microscope (Nikon, Melville, N.Y.). Images were taken at the same exposure time and gain, and all photographic manipulations were performed equally. Phospho-CREB-positive nuclei were quantified in multiple fields from each stained slide by a blinded experimenter. […] Nuclei were also treated with DAPI to differentiate intact nuclei from membrane ghosts. DAPI-positive nuclei were scored for phosho-CREB immunofluorescence. Nuclei with detectable staining (FIG. 6A, NaHCO3) were considered positive for CREB phosphorylation, whereas nuclei with no detectable staining (FIG. 6A, Basal) were counted as negative. Multiple microscopic fields were photographed for each condition, and data was combined from three to five separate experiments.

[4] = target: catalytic portion of the sAC-like adenylyl cyclase from Candida albicans (fragment JR3) (Candida albicans, UniProt A0A1D8PR83); experiment: biochemical; settings: read-out: EC50 for stimulation of adenylyl cyclase activity of JR3
From the text: . FIG. 17A illustrates the bicarbonate dependence of the JR3 fragment; […];

CREB phosphorylation [5] = experiment: time course of CREB phosphorylation in Huh7 cells; type: cell-based, human; settings: 44 mM bicarbonate DME, 1 μM PGE2
Experimental: FIGS. 2A-B show the time course of CREB phosphorylation by sAC and tmAC. Huh7 cells were starved for 1 h for bicarbonate and CO2 and incubated in 44 mM of normal, bicarbonate-containing DME in 5% CO2 for the time indicated (FIG. 2A) or kept in normal media and treated with 1 μM PGE2 for the time indicated (FIG. 2B). Top panels in FIGS. 2A-B show Western blots using anti-phospho-CREB antisera with phosphorylated CREB (P-CREB) protein indicated; the bottom panels show Western blot using CREB-specific antisera with total CREB (CREB) protein indicated. Shown below the Western blots in FIGS. 2A-B are graphical representations of the intensities of phospho-CREB relative to CREB normalized to the 0 min time point (first lane).
All cell lines were grown in DME (44 mM sodium bicarbonate) supplemented with 10% FBS. […]
as §1, with “HRP-conjugated secondary antibodies were used, and bands were visualized using ECL.” left out, “Intensities of phospho-CREB bands were normalized to total CREB.” left out

Chain of catalytic portion of the sAC-like adenylyl cyclase from Candida albicans (fragment JR3) (A0A1D8PR83 entry or part of it): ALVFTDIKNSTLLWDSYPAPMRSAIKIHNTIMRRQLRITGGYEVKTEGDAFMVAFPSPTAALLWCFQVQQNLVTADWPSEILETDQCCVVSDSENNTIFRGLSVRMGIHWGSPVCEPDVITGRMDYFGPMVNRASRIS

Row | Compound | effect on forskolin- or bicarbonate-induced phospho-CREB immunostaining (CREB phosphorylation [1]) | relative intensity of phospho-CREB band normalized to basal [2] | reduction of CREB phosphorylation induced by bicarbonate ([2]; isolated nuclei, 40 mM bicarbonate) | percentage of phospho-CREB-positive nuclei relative to basal [3] | pEC50 [4] | time to detectable increase in phospho-CREB (CREB phosphorylation [5]) | increase in CREB phosphorylation ([2]; isolated nuclei, Western)
1 | O=S(=O)(NCCNC/C=C/c1ccc(Br)cc1)c1cccc2cnccc12 [H89] | inhibited | 13 U | 50% | – | – | – | –
2 | O=C([O-])O.[Na+] [bicarbonate, sodium bicarbonate] | – | 27 U | – | at least a twofold rise | ~3.70 | ≤ 2 min | 27 fold
